# Measured values taken from PMC2729980 (Planta, 2009).
# Target: T1, DkFGT (GST-DkFGT) (Diospyros kaki, UniProt C8KH59)
# T1 sequence (C8KH59 1-459): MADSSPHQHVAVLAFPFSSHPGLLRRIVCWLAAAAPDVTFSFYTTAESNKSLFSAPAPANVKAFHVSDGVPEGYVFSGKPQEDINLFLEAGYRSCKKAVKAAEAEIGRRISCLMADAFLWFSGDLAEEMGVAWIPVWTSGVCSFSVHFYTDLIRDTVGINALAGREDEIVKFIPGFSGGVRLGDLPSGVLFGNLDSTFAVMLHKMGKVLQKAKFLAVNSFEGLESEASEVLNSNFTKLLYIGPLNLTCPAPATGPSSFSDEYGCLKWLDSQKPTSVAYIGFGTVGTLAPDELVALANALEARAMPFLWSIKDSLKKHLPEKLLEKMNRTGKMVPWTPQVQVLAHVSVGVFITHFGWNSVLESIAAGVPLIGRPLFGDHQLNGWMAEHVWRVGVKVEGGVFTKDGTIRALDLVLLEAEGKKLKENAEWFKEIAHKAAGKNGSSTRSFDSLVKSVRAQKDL
# Assay: biochemical
row,Km,Structure (SMILES)
1,143 µM,O=c1c(O)c(-c2ccc(O)cc2)oc2cc(O)cc(O)c12 [kaempferol]
2,186 µM,Oc1ccc(-c2[o+]c3cc(O)cc(O)c3cc2O)cc1 [pelargonidin]
